Assay results: PubChem BioAssay (NCI)
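All cell lines were grown in 96-well plates and treated with compound for 48 hours. GI50 is the concentration that inhibits growth by half. TGI marks complete inhibition of growth.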

Legend:
Experiment in all cases: NCI tumour cell line growth inhibition, 48 h
[1] = test system: COLO 205 colon
[2] = test system: OVCAR-4 ovarian
[3] = test system: K-562 leukemia
[4] = test system: UACC-62 melanoma
[5] = test system: 786-0 renal
[6] = test system: SK-MEL-28 melanoma
[7] = test system: HCT-116 colon
[8] = test system: OVCAR-5 ovarian
[9] = test system: MALME-3M melanoma
[10] = test system: SNB-75 CNS
[11] = test system: HL-60(TB) leukemia

Row | Structure (SMILES) | TGI [1] | TGI [2] | TGI [3] | TGI [4] | TGI [5] | TGI [6] | TGI [7] | TGI [8] | TGI [9] | TGI [10] | TGI [11] | GI50 [1] | GI50 [11] | GI50 [2] | GI50 [6] | GI50 [7] | GI50 [8]
1 | C=C(C(=O)OC)[C@@H]1C[C@@H](OC(C)=O)C2=C[C@H](C[C@@]3(C)O[C@@H]3C3=CC(C)=C(O3)[C@H]1OC(C)=O)OC2=O | 25.8 µM | > 100 µM | 24.9 µM | 40.9 µM | 49.1 µM | 33.2 µM | 24.3 µM | 36.6 µM | 30.7 µM | > 100 µM | – | – | – | – | – | – | –
2 | COc1ccc(-c2c3c(n(C4OC(CO)C(O)C(O)C4O)c(=S)c2C#N)CCCC3)cc1 (centres undefined) | > 100 µM | > 100 µM | – | > 100 µM | > 100 µM | – | > 100 µM | > 100 µM | > 100 µM | 18.7 µM | > 100 µM | – | – | – | – | – | –
3 | C=C1C(=O)O[C@H]2C1C[C@@H](OC(C)=O)/C(C)=C/CC[C@@]1(C)O[C@H]21 (some centres undefined) | 14.2 µM | 28.9 µM | 39.5 µM | 15.6 µM | 23.9 µM | 24.9 µM | 20.9 µM | 31.5 µM | 18.7 µM | 62.7 µM | – | – | – | – | – | – | –
4 | C/C(=N\NC(=O)c1ccccc1O)c1cccc(/C(C)=N/NC(=O)c2ccccc2O)n1.O=S(=O)([O-])[O-].[Fe+2] | > 100 µM | > 100 µM | > 100 µM | > 100 µM | – | > 100 µM | > 100 µM | > 100 µM | > 100 µM | > 100 µM | 0.341 µM | > 100 µM | 0.156 µM | > 100 µM | > 100 µM | 69.2 µM | > 100 µM
5 | Cc1c(N=C/C=C/c2ccccc2)c(=O)n(-c2ccccc2)n1C | > 100 µM | 40.9 µM | – | 36 µM | – | 39.8 µM | 29.2 µM | > 100 µM | 62.9 µM | – | 48.2 µM | – | – | – | – | – | –
6 | CC(C)C1NC(=O)CC(c2ccccc2)N(N=O)C1c1ccccc1 (centres undefined) | > 100 µM | > 100 µM | > 100 µM | > 100 µM | – | > 100 µM | > 100 µM | > 100 µM | > 100 µM | > 100 µM | > 100 µM | – | – | – | – | – | –
7 | COC(C)(C)/C=C/c1[nH]c2ccccc2c1CC(=O)NCCc1cn(C(c2ccccc2)(c2ccccc2)c2ccccc2)cn1 | 3.85 µM | > 100 µM | > 36 µM | 21.3 µM | 17.1 µM | 29.8 µM | 14.8 µM | > 30.5 µM | 11.7 µM | – | 8.88 µM | – | – | – | – | – | –
8 | CSCSCC(CO)NC(=O)/C(C)=C\c1c(C)[nH]c(=O)[nH]c1=O (centres undefined) | > 250 µM | > 250 µM | > 250 µM | > 250 µM | – | > 250 µM | > 250 µM | > 250 µM | > 250 µM | > 250 µM | > 250 µM | – | – | – | – | – | –
9 | O=C(N/N=C/c1cc(Br)cc(Br)c1[O-])c1ccccc1O.O=C(N/N=C/c1cc(Br)cc(Br)c1[O-])c1ccccc1O.[Zn+2] | 20.9 µM | 1.5 µM | – | 2.34 µM | – | 11.5 µM | 13 µM | 13.1 µM | 8.77 µM | 18.8 µM | 0.547 µM | – | – | – | – | – | –
10 | Cc1cc2nc3ccccc3n2c2nc(N)ccc12 | > 100 µM | > 100 µM | > 100 µM | > 100 µM | > 100 µM | – | > 100 µM | > 100 µM | – | > 100 µM | > 100 µM | – | – | – | – | – | –
11 | COC(=O)CCNC(=O)OCc1ccccc1 | > 100 µM | – | > 100 µM | > 100 µM | > 100 µM | > 100 µM | > 100 µM | > 100 µM | > 100 µM | > 100 µM | > 100 µM | – | – | – | – | – | –
12 | O=C1/C(=C/c2ccccc2[N+](=O)[O-])N=C(c2ccccc2)N1c1nc2ccccc2s1 | – | 51 µM | 44.7 µM | – | 58.8 µM | > 100 µM | 38.5 µM | > 100 µM | – | 64.6 µM | 57.1 µM | – | – | – | – | – | –
13 | CCCCCc1c(CCCC)c(=O)[nH]c2nc(NC(=O)CCCC)ccc12 | > 100 µM | > 100 µM | > 100 µM | – | > 100 µM | > 100 µM | > 100 µM | > 100 µM | > 100 µM | > 100 µM | – | – | – | – | – | – | –
14 | Cn1c2ccccc2c(=O)c2c(O)cc3c(c21)C=CC(C)(C)O3 | > 25 µM | > 25 µM | > 25 µM | > 25 µM | – | > 25 µM | > 25 µM | > 25 µM | > 25 µM | 24.9 µM | > 20.1 µM | – | – | – | – | – | –
15 | O=C(c1ccccc1)N1CCC(CC2(c3cc4ccccc4[nH]3)OCCO2)CC1 | 40.1 µM | > 100 µM | 37.6 µM | 39.4 µM | 34.7 µM | 37.4 µM | > 100 µM | > 100 µM | – | > 100 µM | – | – | – | – | – | – | –
16 | CCOC(=O)c1c(NC(=S)Nc2ccc(Cl)cc2)sc2c1CCN(C)C2 | > 100 µM | – | > 100 µM | > 100 µM | > 100 µM | – | > 100 µM | > 100 µM | – | – | > 100 µM | – | – | – | – | – | –
17 | COc1nc(N)c(NC(C)=O)c(=O)n1C | > 100 µM | > 100 µM | > 100 µM | – | – | > 100 µM | > 100 µM | > 100 µM | > 100 µM | > 100 µM | > 100 µM | – | – | – | – | – | –
18 | O=C(CSCC(=O)N/N=C\c1cccc([N+](=O)[O-])c1)N/N=C\c1cccc([N+](=O)[O-])c1 | > 100 µM | > 100 µM | – | > 100 µM | 63.6 µM | > 100 µM | > 100 µM | – | 69.1 µM | 65.6 µM | > 100 µM | – | – | – | – | – | –
19 | OC(CN(CCCl)CCCl)C(O)C(O)C(O)CN(CCCl)CCCl (centres undefined) | > 100 µM | – | > 100 µM | > 100 µM | > 100 µM | > 100 µM | > 100 µM | > 100 µM | > 100 µM | – | > 100 µM | – | – | – | – | – | –
20 | O=C1NN(Cc2ccccc2)C(=O)N2CCC[C@@H]12 | > 100 µM | > 100 µM | – | > 100 µM | > 100 µM | > 100 µM | > 100 µM | > 100 µM | > 100 µM | – | > 100 µM | – | – | – | – | – | –
21 | Nc1ncnc2c1ncn2C1CCC(CP(=O)(O)O)C1 (centres undefined) | > 100 µM | > 100 µM | – | > 100 µM | > 100 µM | > 100 µM | > 100 µM | > 100 µM | > 100 µM | – | > 100 µM | – | – | – | – | – | –
